Laboratory results published in article PMC3559838 (PLoS ONE, 2013).
Like-named read-outs stand apart in the source and are kept apart here.

How the values were obtained:
[1] = cited from earlier work
[2] = human, in vivo; cited from earlier work
CYP2C8 = test system: CYP2C8; parameters: method as in protocol pharmaceutical information; details: ref protocol pharmaceutical information; cited from earlier work
[3] = parameters: method as in Investigator's Brochure, 2004; details: dogs, ref Investigator's Brochure, 2004, cited from earlier work
[4] = test system: murine P388 leukemia cells; parameters: method as in Investigator's Brochure, 2004; details: P388 IP model, ref Investigator's Brochure, 2004, cited from earlier work
[5] = test system: human A2780 ovarian cancer cells; parameters: method as in Plumb et al., 2003; Investigator's Brochure, 2004; details: A2780 xenografts, 10 mg/kg/day IP once daily for 7 days; ref Plumb et al., 2003; Investigator's Brochure, 2004; cited from earlier work
[6] = test system: cisplatin-resistant A2780/cp70; parameters: method as in Plumb et al., 2003; Investigator's Brochure, 2004; details: A2780/cp70 xenografts, 10 mg/kg/day IP once daily for 7 days; ref Plumb et al., 2003; Investigator's Brochure, 2004; cited from earlier work
[7] = parameters: method as in protocol pharmaceutical information; details: ref protocol pharmaceutical information; cited from earlier work
HepG2 cells = assay: MTS growth inhibition assay; assay type: cell-based, human; details: Homo sapiens, HepG2, 72 h
Protocol: To the other plate, equal molar concentrations of belinostat-G were added similarly. After 72 h, cells were stained with Gentian Violet paint (0.5% w/v; B.P.) and assessed for viability. […] After incubating 24 h, 100-µL drug solution or blank medium was added into each well of 96-well plates. 72 h later, 20 µL of MTS/PES was added into each well for incubation for 3 h. OD values are measured on wavelength 490 nm. Cell growth inhibition was calculated based on the […] with subtraction of background reading for only medium containing wells. The growth inhibition was defined as the percentage of the average […] from drug-treated wells over that from control wells without treatment. The experiment was done in triplicates. IC50 values were calculated using GraphPad PRISM software (GraphPad Software, Inc., La Jolla, CA, USA).

[8] = test system: HCT116 colon cancer cells; parameters: method as in Plumb et al., 2003; Investigator's Brochure, 2004; details: HCT116 xenografts, 40 mg/kg/day IP once daily for 7 days; ref Plumb et al., 2003; Investigator's Brochure, 2004; cited from earlier work
[9] = parameters: method as in Investigator's Brochure, 2004; details: arginine formulation, human blood ex vivo; ref Investigator's Brochure, 2004; cited from earlier work
[10] = Pharmacokinetics after 30 min i.v. infusion, phase I trial in hepatocellular carcinoma patients; assay type: in vivo, human; details: for Cmax / AUC(0-t) / Tmax / clearance / half-life / Vd: human, iv, plasma; for Cmax: mean ± SD; for AUC(0-t): read-out: AUC0–24 h; for clearance: read-out: CL (clearance) (converted); for half-life: read-out: T1/2 (half-life at the elimination phase) (converted); for Vd: read-out: Vz (volume of distribution)
Protocol: This multicentre phase I trial of belinostat was done in Hong Kong and Singapore. All patients provided written informed consent according to Good Clinical Practice guidelines, and the protocol was approved by the institutional review boards of Prince of Wales Hospital, Hong Kong and National University Hospital, Singapore.
Venous blood samples had been collected in heparinized tubes. Collected blood samples were centrifuged at 3000 g for 10–15 min and the plasma (supernatant) was separated from the cell pellet and stored in plain tubes at –80°C till analysis. […] Briefly, vorinostat-G was used as the internal standard for belinostat-G. The mass spectrometer was operated in positive ion mode with the optimal mass transitions of belinostat-G: m/z 495>93 and vorinostat-G: m/z 441>232, respectively. The analytical method was well validated with good linearity (coefficient of determination, r^2≥0.999) in the range of 1–100 µM for belinostat-G.
Pharmacokinetic parameters were estimated based on non-compartmental analysis model using WinNonlin software version 5.3 (Pharmsight, Sunnyvale, CA, USA). […] One way analysis of variance (ANOVA) was used to determine the significance among the genotypes with Tukey posthoc tests for adjustment for comparison between individual groups. A value of p<0.05 was considered to be significant.

[11] = parameters: method as in protocol pharmaceutical information; details: ref protocol pharmaceutical information, cited from earlier work
CYP1A2 = test system: CYP1A2; parameters: method as in protocol pharmaceutical information; details: ref protocol pharmaceutical information; cited from earlier work
[12] = 150 mg/m2, 30-minute IV infusion, ref phase 1 study currently underway
[13] = 300 mg/m2, 30-minute IV infusion, ref phase 1 study currently underway
[14] = 600 mg/m2, 30-minute IV infusion, ref phase 1 study currently underway
[15] = 900 mg/m2, 30-minute IV infusion, ref phase 1 study currently underway
[16] = 1200 mg/m2, 30-minute IV infusion, ref phase 1 study currently underway
[17] = 600 mg/m^2, 30 min i.v. infusion
[18] = 900 mg/m^2, 30 min i.v. infusion
[19] = 1200 mg/m^2, 30 min i.v. infusion
[20] = 1400 mg/m^2, 30 min i.v. infusion

For O=C(/C=C/c1cccc(S(=O)(=O)Nc2ccccc2)c1)NO [Belinostat, N-hydroxy-3-(phenylsulphamoylphenyl) acrylamide], the Cmax [1, 12] is given as 6565 ± 2158 ng/mL, the t1/2 [1, 12] is given as 46.6 ± 8.7 min and the Cmax [1, 13] is given as 15505 ± 6245 ng/mL. The t1/2 [1, 13] was 44.6 ± 8.0 min, the Cmax [1, 14] was 31177 ± 8968 ng/mL and the t1/2 [1, 14] was 43.4 ± 6.7 min. The “dose limiting toxicity (DLT)” value ([1]; 600 mg/m2/d, six patients, ref on-going phase 1) was “DLT of severe fatigue”, the Cmax [1, 15] was 53779 ± 6381 ng/mL and the t1/2 [1, 15] was 54.2 ± 8.7 min. The Cmax [1, 16] was 52362 ± 12724 ng/mL, the t1/2 [1, 16] was 85.5 ± 19.6 min and the tolerability ([1]; doses ranging from 150 – 1200 mg/m2, ref phase 1 study currently underway) was “generally been well tolerated”. The maximum tolerable dose [2] was 1200 mg/m^2, the CYP2C8 inhibition (CYP2C8) was “weak to moderate inhibitor” and the “systemic and local irritation adverse events (lymphopenia, lymphoid atrophy, injection site reactions)” value ([3]; 50 mg/kg/day, arginine formulation) was “mild and fully reversible”. The “no-observable-effect-level (NOEL)” value ([3]; one study) was 10 mg/kg/day, the “survival, 40 mg/kg/day × 5 days (from day 3) versus same total dose (200 mg/kg) as bolus on day 3” value ([4]; P<0.0001) was “superior” and the “survival, 20 mg/kg/day for 10 days versus 40 mg/kg every two days (cumulative 200 mg/kg)” value ([4]; P=0.009) was “better survival”. For the same compound, the “survival rates, every second day three times versus every day for 5 days (cumulative 270 mg/kg)” value ([4]; p=0.49) was “no significant differences”, the “survival, daily dose (20, 40, or 80 mg/kg for 5 days) fractionated into two doses per day versus one daily dose” value [4] was “did not improve survival” and the tumor growth [5] was “Delay of tumor growth was observed”. The tumor growth [6] was “Delay of tumor growth was observed”, the light stability [7] was “no obvious light instability” and the IC50 (HepG2 cells) was 6.4 µM. The tumor growth [8] was “Growth inhibition was also observed”, the hemolysis [9] was “No hemolysis” and the “coefficient of variation of Clearance (CL)” value ([10]; 1200 mg/m^2) was 29.0%. The “coefficient of variation of Clearance (CL)” value ([10]; 1400 mg/m^2) was 30.6%, the “dose linearity of pharmacokinetics” value ([10]; doses ranging from 600 to 1400 mg/m^2) was “linear pharmacokinetics” and the Cmax [10, 17] was 88.2 ± 8.5 µM. For the same compound, the Cmax [10, 18] was 98.5 ± 29.7 µM, the Cmax [10, 19] was 154 ± 50.4 µM and the Cmax [10, 20] was 174 ± 48.3 µM. The AUC(0-t) ([10]; 600 mg/m^2) was 61.3 ± 1.2 µM·h, the AUC(0-t) ([10]; 900 mg/m^2) was 70 ± 17.3 µM·h and the AUC(0-t) ([10]; 1200 mg/m^2) was 113 ± 37.1 µM·h. It also gave an AUC(0-t) ([10]; 1400 mg/m^2) of 149 ± 46.2 µM·h, a Tmax [10, 17] of 19.8 ± 8.4 min and a clearance [10, 17] of 877 mL/min. For the same compound, the half-life [10, 17] was 212 ± 20.4 min, the Vd [10, 17] was 268 ± 26.6 L and the Tmax [10, 18] was 25.2 ± 8.4 min. It also gave a clearance [10, 18] of 1180 mL/min, a half-life [10, 18] of 244 ± 23.4 min and a Vd [10, 18] of 409 ± 76.7 L. It also gave a Tmax [10, 19] of 38.4 ± 6 min, a clearance [10, 19] of 910 mL/min and a half-life [10, 19] of 248 ± 25.2 min. The Vd [10, 19] was 305 ± 186 L, the Tmax [10, 20] was 24 ± 8.4 min and the clearance [10, 20] was 883 mL/min. For the same compound, the half-life [10, 20] was 212 ± 30 min, the Vd [10, 20] was 279 ± 121 L and the “Approximate Solubility” value ([11]; 1,2-propanediol) was ~ 0.2 mg/mL. The “Approximate Solubility” value ([11]; ethanol) was greater than 200 mg/mL, the “Approximate Solubility” value ([11]; polyethylene glycol 400) was ~ 1.5 mg/mL and the CYP1A2 induction (CYP1A2) was “moderate inducer”.
